Key:
wild poinsettia (EPHHL) = test: Test 12 field trial, preemergence; format: in vivo, Euphorbia heterophylla; design: scale not given here; conditions: Cpd 2 or Cpd 1 62 g a.i./ha, Diuron 2000 g a.i./ha
Description: (§1) In early-mid spring season, corn seeds (hybrid ‘Pioneer 3041’) were planted 5 cm deep and sugarcane nodes (variety RB-72.454) were planted 10 cm deep in separate plots in a clay soil having 2.6% organic matter and a pH of 5.6. Plots were 24 m long by 1.5 m wide with rows spaced 80 cm (corn) or 140 cm (sugarcane) apart. Corn seeds were spaced 15 cm apart and sugarcane nodes were spaced 10 cm apart within the rows. At the same time, weed seeds were broadcast over the surface of separate plots without a crop, one weed species per plot. The weed plots were rotary tilled to incorporate the weed seeds to a variety of depths. The field was managed using conventional tillage practices.

winter barley (HORVW) = test: Test 19 growth chamber, postemergence; format: in vivo, Hordeum vulgare; conditions: in vivo
Description: A test was conducted to evaluate the effects on winter barley (HORVW, Hordeum vulgare L.) and winter wheat (TRZAW, Triticum aestivum L.) of mixtures of Compound 2 with the commercial herbicide (2,4-dichlorophenoxy)acetic acid (2,4-D), an auxin mimic. […] Plants were treated postemergence at the 3-leaf growth stage, and each treatment was replicated four times. […] Plants were watered as needed. […] Results are the means of the four replicates.

[1] = system: Ipomoea grandiflora (IPOGF); test: Test 12 field trial, preemergence; format: in vivo; design: scale not given here; conditions: Cpd 2 or Cpd 1 62 g a.i./ha, Diuron 2000 g a.i./ha
Description: as §1

wild spikenard (HPYSU) = test: Test 12 field trial, preemergence; format: in vivo; design: scale not given here; conditions: Cpd 2 or Cpd 1 62 g a.i./ha, Diuron 2000 g a.i./ha
Description: as §1

velvetleaf (ABUTH) = test: Test 2 field trial, preemergence; format: in vivo, Abutilon theophrasti
Description: (§2) Corn seeds (hybrid ‘Pioneer 31G96’) were planted in mid spring season, 3.8 cm deep in a clay loam soil having 2% organic matter and a pH of 6.6. Plots were 6.1 m long by 3.0 m wide with rows spaced 76 cm apart. Seeds were spaced 15 cm apart within the rows. The field was managed using conventional tillage practices. […] A few of the weed species could not be evaluated at every timing. […] Results are the means of the three replicates.

winter wheat (TRZAW) [2] = test: Test 22 growth chamber, postemergence; format: in vivo, Triticum aestivum; conditions: 25 DAA
Description: (§3) A test was conducted to evaluate the effects on winter barley (HORVW, Hordeum vulgare L.), winter wheat (TRZAW, Triticum aestivum L.), and several weed species of mixtures of Compound 2 with the commercial herbicides (2,4-dichlorophenoxy)acetic acid (2,4-D) and (4-chloro-2-methylphenoxy)acetic acid (MCPA), auxin mimics. […] Plants were treated postemergence at the 2-4 leaf growth stage, except KCHSC, SASKR and STEME which were in the 4-8 leaf growth stage. Each treatment was replicated one time. […] Plants were watered as needed. […] Results are from single replicates.

winter wheat (TRZAW) [3] = test: Test 23 growth chamber, postemergence; format: in vivo, Triticum aestivum; conditions: 21 DAA
Description: A test was conducted to evaluate the effects on winter barley (HORVW, Hordeum vulgare L.), winter wheat (TRZAW, Triticum aestivum L.), and several weed species of mixtures of Compound 2 with the commercial herbicides (2,4-dichlorophenoxy)acetic acid (2,4-D) and (4-chloro-2-methylphenoxy)acetic acid (MCPA), auxin mimics. […] Plants were treated postemergence at the 2-4 leaf growth stage, and each treatment was replicated three times. […] Plants were watered as needed. […] Results are means of the three replicates.

kochia (KCHSC) = test: Test 22 growth chamber, postemergence; format: in vivo, Kochia scoparia; conditions: 25 DAA
Description: as §3

giant foxtail (SETFA) = test: Test 2 field trial, preemergence; format: in vivo, Setaria faberi; design: scale not given here
Description: as §2

redroot pigweed (AMARE) = test: Test 2 field trial, preemergence; format: in vivo, Amaranthus retroflexus; design: scale not given here
Description: as §2

prickly lettuce (LACSE) = test: Test 9 field trial, emerged weeds before corn planting; format: in vivo, Lactuca serriola; conditions: g a.i./ha: Cpd 2 100, Glyphosate 1540, Paraquat 1150
Description: Corn seeds (hybrid ‘Pioneer 34M91 RR’) were planted in mid spring season, about 3.8 cm deep in a silty clay loam soil having a pH of 6.7. Plots were 9.1 m long by 3.0 m. The field was managed using no-till practices. […] Compound 2 and paraquat treatments, alone and in combination, also included a surfactant. Glyphosate, alone and with Compound 2, included ammonium sulfate in the treatment mixture. […] The effects on the weeds in the treated plots and untreated control plots were recorded 7, 14, 23, 30 and 57 days after application. Most of the weed species could not be evaluated at every timing. Corn response was only evaluated 57 days after application. […] Results are the means of the three replicates.

[4] = 18 DAA, g a.i./ha: Cpd 2 25, Atrazine 250
[5] = 18 DAA, g a.i./ha: Cpd 2 50, Atrazine 500
[6] = 18 DAA, g a.i./ha: Cpd 2 75, Atrazine 750
[7] = 18 DAA, g a.i./ha: Cpd 2 100, Atrazine 1000
[8] = 18 DAA, g a.i./ha: Cpd 2 150, Atrazine 1500
[9] = 28 DAA, g a.i./ha: Cpd 2 25, Atrazine 250
[10] = 28 DAA, g a.i./ha: Cpd 2 50, Atrazine 500
[11] = 28 DAA, g a.i./ha: Cpd 2 75, Atrazine 750
[12] = 28 DAA, g a.i./ha: Cpd 2 100, Atrazine 1000
[13] = 28 DAA, g a.i./ha: Cpd 2 150, Atrazine 1500
[14] = 55 DAA, g a.i./ha: Cpd 2 25, Atrazine 250
[15] = 55 DAA, g a.i./ha: Cpd 2 50, Atrazine 500
[16] = 55 DAA, g a.i./ha: Cpd 2 75, Atrazine 750
[17] = 55 DAA, g a.i./ha: Cpd 2 100, Atrazine 1000
[18] = 55 DAA, g a.i./ha: Cpd 2 150, Atrazine 1500

`COC(=O)c1nc(C2CC2)nc(N)c1Cl` [Compound 2, methyl 6-amino-5-chloro-2-cyclopropyl-4-pyrimidinecarboxylate] was tested, and the “EPHHL Obs” value (wild poinsettia (EPHHL); 15 DAA) was 40, the “EPHHL Obs” value (wild poinsettia (EPHHL); 29 DAA) was 60 and the “EPHHL Obs” value (wild poinsettia (EPHHL); 48 DAA) was 40. For the same compound, the “EPHHL Obs” value (wild poinsettia (EPHHL); 61 DAA) was 40, the “HORVW Obs” value (winter barley (HORVW)) was 45 and the “IPOGF Obs” value ([1]; 15 DAA) was 50. The “IPOGF Obs” value ([1]; 29 DAA) was 60, the “IPOGF Obs” value ([1]; 48 DAA) was 40 and the “IPOGF Obs” value ([1]; 61 DAA) was 40. The “HPYSU Obs” value (wild spikenard (HPYSU); 15 DAA) was 60, the “HPYSU Obs” value (wild spikenard (HPYSU); 29 DAA) was 60 and the “HPYSU Obs” value (wild spikenard (HPYSU); 48 DAA) was 50. The “HPYSU Obs” value (wild spikenard (HPYSU); 61 DAA) was 40, the “ABUTH Obs” value (velvetleaf (ABUTH); [4]) was 13 and the “ABUTH Obs” value (velvetleaf (ABUTH); [5]) was 28. The “ABUTH Obs” value (velvetleaf (ABUTH); [6]) was 45, the “ABUTH Obs” value (velvetleaf (ABUTH); [7]) was 45 and the “ABUTH Obs” value (velvetleaf (ABUTH); [8]) was 52. The “ABUTH Obs” value (velvetleaf (ABUTH); [9]) was 13, the “ABUTH Obs” value (velvetleaf (ABUTH); [10]) was 18 and the “ABUTH Obs” value (velvetleaf (ABUTH); [11]) was 65. For the same compound, the “ABUTH Obs” value (velvetleaf (ABUTH); [12]) was 63, the “ABUTH Obs” value (velvetleaf (ABUTH); [13]) was 73 and the “ABUTH Obs” value (velvetleaf (ABUTH); [14]) was 38. For the same compound, the “ABUTH Obs” value (velvetleaf (ABUTH); [15]) was 55, the “ABUTH Obs” value (velvetleaf (ABUTH); [16]) was 63 and the “ABUTH Obs” value (velvetleaf (ABUTH); [17]) was 68. For the same compound, the “ABUTH Obs” value (velvetleaf (ABUTH); [18]) was 78, the “Postemergence TRZAW Obs” value (winter wheat (TRZAW) [2]; Cpd 2 alone 4 g a.i./ha) was 30 and the “Postemergence TRZAW Obs” value (winter wheat (TRZAW) [2]; Cpd 2 alone 8 g a.i./ha) was 35. The “Postemergence TRZAW Obs” value (winter wheat (TRZAW) [2]; Cpd 2 alone 16 g a.i./ha) was 40, the “Postemergence TRZAW Obs” value (winter wheat (TRZAW) [3]; Cpd 2 alone 4 g a.i./ha) was 35 and the “Postemergence TRZAW Obs” value (winter wheat (TRZAW) [3]; Cpd 2 alone 8 g a.i./ha) was 38. The “Postemergence TRZAW Obs” value (winter wheat (TRZAW) [3]; Cpd 2 alone 16 g a.i./ha) was 43, the “Postemergence KCHSC Obs” value (kochia (KCHSC); Cpd 2 alone 4 g a.i./ha) was 45 and the “Postemergence KCHSC Obs” value (kochia (KCHSC); Cpd 2 alone 8 g a.i./ha) was 50. For the same compound, the “Postemergence KCHSC Obs” value (kochia (KCHSC); Cpd 2 alone 16 g a.i./ha) was 60, the “SETFA Obs” value (giant foxtail (SETFA); [4]) was 13 and the “SETFA Obs” value (giant foxtail (SETFA); [5]) was 22. For the same compound, the “SETFA Obs” value (giant foxtail (SETFA); [6]) was 32, the “SETFA Obs” value (giant foxtail (SETFA); [7]) was 35 and the “SETFA Obs” value (giant foxtail (SETFA); [8]) was 43. The “SETFA Obs” value (giant foxtail (SETFA); [9]) was 5, the “SETFA Obs” value (giant foxtail (SETFA); [10]) was 10 and the “SETFA Obs” value (giant foxtail (SETFA); [11]) was 30. For the same compound, the “SETFA Obs” value (giant foxtail (SETFA); [12]) was 23, the “SETFA Obs” value (giant foxtail (SETFA); [13]) was 65 and the “AMARE Obs” value (redroot pigweed (AMARE); [9]) was 30. For the same compound, the “AMARE Obs” value (redroot pigweed (AMARE); [10]) was 90, the “AMARE Obs” value (redroot pigweed (AMARE); [11]) was 98 and the “AMARE Obs” value (redroot pigweed (AMARE); [12]) was 93. The “AMARE Obs” value (redroot pigweed (AMARE); [13]) was 82, the “AMARE Obs” value (redroot pigweed (AMARE); [14]) was 100 and the “AMARE Obs” value (redroot pigweed (AMARE); [15]) was 100. The “AMARE Obs” value (redroot pigweed (AMARE); [16]) was 100, the “AMARE Obs” value (redroot pigweed (AMARE); [17]) was 100 and the “AMARE Obs” value (redroot pigweed (AMARE); [18]) was 100. For the same compound, the “LACSE Obs” value (prickly lettuce (LACSE); 7 DAA) was 58%, the “LACSE Obs” value (prickly lettuce (LACSE); 14 DAA) was 63% and the “LACSE Obs” value (prickly lettuce (LACSE); 23 DAA) was 70%. The “LACSE Obs” value (prickly lettuce (LACSE); 30 DAA) was 88% and the “LACSE Obs” value (prickly lettuce (LACSE); 57 DAA) was 98%.

Reference: patent US20100285959A1, “HERBICIDAL MIXTURES” (priority 2006, published 2010)
